Reference: patent publication US11845724B2, “USP30 inhibitors and uses thereof” (Vincere Biosciences, Inc., priority 2019, dated 2023)
pIC50: −log10 of the molar value. Several values for one entry are separate records, joined by “and”; a condition that tells them apart may be missing. Identical values can stand only once. Like-named read-outs stand apart in the source and are kept apart here.

What was measured:
[1] = biological target: recombinant USP30 (amino acids 57-517 of the human sequence) (Homo sapiens (Human), UniProt Q70CQ3); assay: In vitro USP30 biochemical assay (Ubiquitin-Rhodamine)
recombinant USP30 (amino acids 57-517 of the human sequence), sequence (Q70CQ3 57-517): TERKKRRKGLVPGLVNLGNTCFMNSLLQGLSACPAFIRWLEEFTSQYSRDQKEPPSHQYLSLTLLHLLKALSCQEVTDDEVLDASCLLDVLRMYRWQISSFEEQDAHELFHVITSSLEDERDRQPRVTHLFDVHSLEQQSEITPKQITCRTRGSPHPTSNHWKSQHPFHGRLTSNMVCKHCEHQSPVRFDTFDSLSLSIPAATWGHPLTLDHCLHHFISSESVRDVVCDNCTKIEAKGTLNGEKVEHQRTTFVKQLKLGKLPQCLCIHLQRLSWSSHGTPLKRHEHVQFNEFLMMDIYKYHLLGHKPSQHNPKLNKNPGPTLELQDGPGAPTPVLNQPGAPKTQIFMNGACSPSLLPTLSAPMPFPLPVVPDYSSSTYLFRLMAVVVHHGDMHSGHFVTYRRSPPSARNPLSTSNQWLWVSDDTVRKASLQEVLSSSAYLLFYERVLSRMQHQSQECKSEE

USP30 [2] = biological target: T1, USP30 (Homo sapiens (Human), UniProt Q70CQ3); assay: Dundee MALDI-TOF mass spectrometry assay (% DUB activity remaining at 1 μM); format: biochemical; conditions: % DUB activity remaining at compound concentration of 1 μM; avg; read-out: Dundee % Activity at 1 μM (avg in vitro MS assay)
T1 sequence (Q70CQ3 whole entry): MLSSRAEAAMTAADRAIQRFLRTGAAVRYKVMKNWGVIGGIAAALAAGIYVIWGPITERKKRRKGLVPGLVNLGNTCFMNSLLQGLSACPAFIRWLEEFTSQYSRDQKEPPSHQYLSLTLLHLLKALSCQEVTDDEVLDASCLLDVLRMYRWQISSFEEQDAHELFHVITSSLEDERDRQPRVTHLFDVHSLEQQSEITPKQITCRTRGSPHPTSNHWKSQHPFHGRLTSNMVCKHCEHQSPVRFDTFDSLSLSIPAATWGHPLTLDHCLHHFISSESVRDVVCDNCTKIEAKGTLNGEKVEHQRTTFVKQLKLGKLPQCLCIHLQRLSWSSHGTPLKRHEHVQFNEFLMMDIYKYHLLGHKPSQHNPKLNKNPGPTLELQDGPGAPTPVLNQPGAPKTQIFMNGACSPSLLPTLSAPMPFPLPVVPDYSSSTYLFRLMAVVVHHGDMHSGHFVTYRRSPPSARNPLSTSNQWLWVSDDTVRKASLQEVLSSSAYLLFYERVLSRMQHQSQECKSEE
Procedure: Compounds were tested in a MALDI-TOF assay based on the paper by Ritorto et al. (Ritorto et al. Screening of DUB activity and specificity by MALDI-TOF mass spectrometry. Nat. Commun. 5:4763).
USP30 (25 ng/μl) tested against K48-linked diubiquitin (5.6 μM). USP30 was diluted in a buffer containing 40 mM Tris, 0.01% BSA, 1 mM DTT and K48 in 40 mM Tris, 0.01% BSA.
The compounds were pre-incubated with the USP30 for 5 mins at room temp before the K48 dimer addition. The assay mixture was then incubated for 45 mins at room temp. The assay was stopped by the addition of TFA to a final concentration of 2% (v/v).
Acidified samples of the DUB assays were mixed with 0.5 mM 15N-ubiquitin and then with one part of 2% (v/v) TFA and one part of 2,5 DHAP matrix solution (7.6 mg of 2,5 DHAP in […] ethanol and […] of an aqueous 12 mg ml 1 diammonium hydrogen citrate). Then 250 nl of these solutions were spotted onto an MTP AnchorChip 1,536 TF and this is analysed on the Bruker rapifleX MALDI-TOF.
Table 22 presents the Dundee MALDI-TOF values expressed as % DUB activity remaining at a compound concentration of 1 μM.

USP30 [3] = biological target: T1, USP30; assay: Dundee MALDI-TOF mass spectrometry assay (IC50); format: biochemical; conditions: USP30 25 ng/μl, K48-linked diubiquitin 5.6 μM
Summary of the method: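 USP30 (25 ng/μl) preincubated with compound 5 min at RT in Tris/BSA/DTT buffer, then K48-linked diubiquitin (5.6 μM) added for 45 min at RT. Stopped with 2% TFA; cleavage quantified by MALDI-TOF mass spectrometry to give IC50.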

[4] = system: differentiated RenCell VM; assay: In-cell Tom20 loss assay; format: cell-based; conditions: 20 h after compound addition
Procedure: To evaluate Tom20 loss following treatment with compounds and/or antimycin/oligomycin, a96-well plate assay was performed on differentiated RenCell VM. These were seeded into laminin-coated 96-well plates at 5000 cells/well in normal growth medium (ReNcell NSC maintenance medium+20 ng/ml FDF-2 and 20 ng/ml EGF). After 3 days, growth medium was replaced with differentiation medium (ReNCell NSC medium+0.1 mM dibutyryl cAMP and 2 ng/ml GDNF). On days 1 and 4 following addition of differentiation medium, the media was removed and replaced with fresh differentiation medium. On the 7th day compounds or DMSO were added, and 1 hour later, some wells also received additions of oligomycin (1 uM and antimycin (1 uM). 20 h after compound addition, cells were fixed by adding formaldehyde to a final concentration of […], incubated 20 minutes at room temperature, then washed with PBS. Blocking buffer (3% bovine serum albumin, 2% fetal bovine serum, 0.2% Triton X100 in PBS) was added to all wells for two hours, then removed and replaced with blocking buffer containing antibody against Tom20 overnight. After washing with PBS, secondary antibody (Donkey anti-mouse conjugated to Cy3) was added along with DAPI to mark nuclei, and incubated two hours. After again washing with PBS, cells were imaged using GE INCell 6000 at 40× and quantified using HCA-based quantification algorithm of fluorescence density×area normalized to the number of nuclei.

[5] = USP30 IC50 μM (avg), Ubiquitin-Rhodamine substrate 25 nM, 1.5 nM recombinant USP30
[6] = avg, read-out: Dundee IC50 μM (avg in vitro MS assay)
[7] = read-out: USP30 IC50 μM (avg), Ubiquitin-Rhodamine substrate 25 nM, 1.5 nM recombinant USP30
[8] = Dundee IC50 μM (avg in vitro MS assay)

Row | IC50 [1, 5] | activity at 1 µM (USP30 [2]) [%] | IC50 (USP30 [3]; [6]) | IC50 [1, 7] [µM] | pIC50 [4] | Compound | IC50 (USP30 [3]; [8]) [µM]
1 |  |  | < 0.05 µM | < 0.05 | ≥ 6.30 | CC(C)(CO)NS(=O)(=O)c1ccc(NC(=O)[C@H](Cc2ccccc2)NC(=O)c2ccc(F)cc2)cc1 [Compound I-137, (S)-4-fluoro-N-(1-(4-(N-(1-hydroxy-2-methylpropan-2-yl)sulfamoyl)phenylamino)-1-oxo-3-phenylpropan-2-yl)benzamide] | 
2 | 0.05 to 1 µM |  | < 0.05 µM and 0.05 to 1 µM | 0.05 to 1 | ≥ 6.30 | O=C(N[C@@H](Cc1ccccc1)C(=O)Nc1ccc(S(=O)(=O)NC23CC(C2)C3)cc1)c1ccc(F)cc1 [Compound I-11, (S)-N-(1-(4-(N-Bicyclo[1.1.1]pentan-1-ylsulfamoyl)phenylamino)-1-oxo-3-phenylpropan-2-yl)-4-fluorobenzamide] | 
3 | 0.05 to 1 µM | 0 to 25 | 0.05 to 1 µM |  |  | CN1CC(NS(=O)(=O)c2ccc(NC(=O)[C@H](Cc3ccccc3)NC(=O)c3ccc(F)cc3)cc2)C1 [Compound I-65, (S)-4-fluoro-N-(1-(4-(N-(1-methylazetidin-3-yl)sulfamoyl)phenylamino)-1-oxo-3-phenylpropan-2-yl)benzamide] | 
4 |  |  |  | < 0.05 | ≥ 6.30 | O=C(N[C@@H](Cc1ccccc1)C(=O)Nc1ccc(S(=O)(=O)N[C@@H]2CCOC2)cc1)c1ccc(F)cc1 [Compound I-175, 4-fluoro-N-((S)-1-oxo-3-phenyl-1-(4-(N-((R)-tetrahydrofuran-3-yl)sulfamoyl)phenylamino)propan-2-yl)benzamide] | 
5 |  | 0 to 25 | 0.05 to 1 µM |  |  | O=C(N[C@@H](Cc1cccnc1)C(=O)Nc1ccc(S(=O)(=O)NC2COC2)cc1)c1ccc(F)cc1 [Compound I-66, (S)-4-fluoro-N-(1-(4-(N-oxetan-3-ylsulfamoyl)phenylamino)-1-oxo-3-(pyridin-3-yl)propan-2-yl)benzamide] | 
6 |  | 0 to 25 | < 0.05 µM |  |  | C[C@H](NS(=O)(=O)c1ccc(NC(=O)[C@H](Cc2ccccc2)NC(=O)c2ccc(F)cc2)cc1)C1CC1 [Compound I-27, N-((S)-1-(4-(N-((S)-1-cyclopropylethyl)sulfamoyl)phenylamino)-1-oxo-3-phenylpropan-2-yl)-4-fluorobenzamide] | 
7 |  | 0 to 25 | < 0.05 µM |  |  | CC[C@H](C)NS(=O)(=O)c1ccc(NC(=O)[C@H](Cc2ccccc2)NC(=O)c2ccc(F)cc2)cc1 [Compound I-28, N-((S)-1-((4-(N-((S)-sec-butyl)sulfamoyl)phenyl)amino)-1-oxo-3-phenylpropan-2-yl)-4-fluorobenzamide] | 
8 | 0.05 to 1 µM | 0 to 25 | < 0.05 µM |  |  | O=C(N[C@@H](Cc1ccccc1)C(=O)Nc1ccc(S(=O)(=O)NC2COC2)cc1)c1ccc(F)cc1 [Compound I-64, (S)-4-fluoro-N-(1-(4-(N-oxetan-3-ylsulfamoyl)phenylamino)-1-oxo-3-phenylpropan-2-yl)benzamide] | 

Second part, the compound before the results:

Row | Compound | IC50 [1, 5] | activity at 1 µM (USP30 [2]) [%] | IC50 (USP30 [3]; [6]) | IC50 [1, 7] [µM] | pIC50 [4] | IC50 (USP30 [3]; [8]) [µM]
9 | C[C@@H](NS(=O)(=O)c1ccc(NC(=O)[C@H](Cc2ccccc2)NC(=O)c2ccc(F)cc2)cc1)C(F)(F)F [Compound I-26, 4-fluoro-N-((S)-1-oxo-3-phenyl-1-(4-(N-((R)-1,1,1-trifluoropropan-2-yl)sulfamoyl)phenylamino)propan-2-yl)benzamide] | 0.05 to 1 µM | 0 to 25 | < 0.05 µM |  |  | 
10 | CC(C)(C)NS(=O)(=O)c1ccc(NC(=O)C2Cc3cnccc3CN2C(=O)c2ccc(F)cc2)cc1 (stereo not shown) [Compound I-50, N-(4-(N-tert-butylsulfamoyl)phenyl)-2-(4-fluorobenzoyl)-1,2,3,4-tetrahydro-2,6-naphthyridine-3-carboxamide] | 1 to 10 µM | 50 to 75 | 1 to 10 µM |  |  | 
11 | Cc1cc(S(=O)(=O)NC(C)(C)C)ccc1NC(=O)[C@H](Cc1ccccc1)NC(=O)c1ccc(F)cc1 [Compound I-93, (S)-N-(1-(4-(N-tert-butylsulfamoyl)-2-methylphenylamino)-1-oxo-3-phenylpropan-2-yl)-4-fluorobenzamide] |  |  | 0.05 to 1 µM | < 0.05 | 6.00 to 6.30 | 
12 | CN(C(=O)c1ccc(F)cc1)[C@@H](Cc1ccccc1)C(=O)Nc1ccc(S(=O)(=O)NC(C)(C)C)cc1 [Compound I-35, (S)-N-(1-(4-(N-tert-Butylsulfamoyl)phenylamino)-1-oxo-3-phenylpropan-2-yl)-4-fluoro-N-methylbenzamide] | 0.05 to 1 µM and 1 to 10 µM | 0 to 25 | 0.05 to 1 µM |  |  | 
13 | CC(C)(C)NS(=O)(=O)c1ccc(NC(=O)C2(NC(=O)c3ccc(F)cc3)Cc3ccccc3C2)cc1 [Compound I-19, N-(4-(N-tert-butylsulfamoyl)phenyl)-2-(4-fluorobenzamido)-2,3-dihydro-1H-indene-2-carboxamide] | 0.05 to 1 µM | 25 to 50 | 0.05 to 1 µM |  |  | 
14 | CCNS(=O)(=O)c1ccc(NC(=O)[C@H](Cc2ccccc2)N(C)C(=O)c2ccc(F)cc2)cc1 [Compound I-51, (S)-N-(1-(4-(N-ethylsulfamoyl)phenylamino)-1-oxo-3-phenylpropan-2-yl)-4-fluoro-N-methylbenzamide] | 1 to 10 µM | > 75 | 1 to 10 µM |  |  | 
15 | CN(C(=O)[C@H](Cc1ccccc1)NC(=O)c1ccc(F)cc1)c1ccc(S(=O)(=O)NC(C)(C)C)cc1 [Compound I-36, (S)-N-(1-((4-(N-tert-butylsulfamoyl)phenyl)(methyl)amino)-1-oxo-3-phenylpropan-2-yl)-4-fluorobenzamide] |  | > 75 | > 1 µM |  |  | 
16 | CC(C)(C)NS(=O)(=O)c1ccc(NC[C@H](Cc2ccccc2)NC(=O)c2ccc(F)cc2)cc1 [Compound I-44, (S)-N-(1-(4-(N-tert-butylsulfamoyl)phenylamino)-3-phenylpropan-2-yl)-4-fluorobenzamide] |  | > 75 | > 1 µM |  |  | 
17 | CC(C)(C)N=S(C)(=O)c1ccc(NC(=O)[C@H](Cc2ccccc2)NC(=O)c2ccc(F)cc2)cc1 (stereo partly drawn) [Compound I-17, N-((2S)-1-((4-(N-(tert-butyl)-S-methylsulfonimidoyl)phenyl)amino)-1-oxo-3-phenylpropan-2-yl)-4-fluorobenzamide] |  | > 75 |  |  |  | > 1
18 | CC(C)(C)NS(=O)(=O)c1ccc(NC(=O)C2Cc3cccnc3N2C(=O)c2ccc(F)cc2)cc1 (stereo not shown) [Compound I-57, N-(4-(N-tert-butylsulfamoyl)phenyl)-1-(4-fluorobenzoyl)-2,3-dihydro-1H-pyrrolo[2,3-b]pyridine-2-carboxamide] |  | > 75 |  |  |  | > 1
19 | CCNS(=O)(=O)c1ccc(NC(=O)C2Cc3ccccc3CN2C(=O)c2ccc(F)cc2)cc1 (stereo not shown) [Compound I-49, N-(4-(N-ethylsulfamoyl)phenyl)-2-(4-fluorobenzoyl)-1,2,3,4-tetrahydroisoquinoline-3-carboxamide] |  | > 75 | 1 to 10 µM |  |  | 
20 | CC(C)(C)NC(c1ccc(NC(=O)[C@H](Cc2ccccc2)NC(=O)c2ccc(F)cc2)cc1)C(F)(F)F (stereo partly drawn) [Compound I-18, N-((2S)-1-(4-(1-(tert-butylamino)-2,2,2-trifluoroethyl)phenylamino)-1-oxo-3-phenylpropan-2-yl)-4-fluorobenzamide] |  | 50 to 75 |  | > 10 |  | > 10
21 | CC(C)(C)NS(=O)(=O)c1ccc(NC[C@H](O)[C@H](Cc2ccccc2)NC(=O)c2ccc(F)cc2)cc1 [Compound I-41, N-((2S,3S)-4-(4-(N-tert-butylsulfamoyl)phenylamino)-3-hydroxy-1-phenylbutan-2-yl)-4-fluorobenzamide] | 1 to 10 µM | 25 to 50 | 1 to 10 µM |  |  | 
